SMILES strings stand for the structures.

The values below come from US4847247A, “Penicillin derivatives as anti-inflammatory and antidegenerative agents” (Merck & Co., Inc., priority 1986, dated 1989).

In one assay the target is T1, Human Polymorphonuclear Leukocyte Elastase (Homo sapiens, UniProt P08246).
T1 construct: Crude extract of human polymorphonuclear leukocytes (PMN) containing elastase activity; endogenous in cells; host or cells: human polymorphonuclear leukocytes (crude extract)
T1 sequence (P08246 30-247 limits assumed): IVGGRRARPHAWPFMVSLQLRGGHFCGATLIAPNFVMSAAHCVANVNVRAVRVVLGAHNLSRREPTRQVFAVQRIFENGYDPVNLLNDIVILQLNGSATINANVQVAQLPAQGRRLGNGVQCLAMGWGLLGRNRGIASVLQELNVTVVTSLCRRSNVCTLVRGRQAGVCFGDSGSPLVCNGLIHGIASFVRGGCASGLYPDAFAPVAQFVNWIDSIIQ
As to the kind of experiment: Inhibition of human polymorphonuclear leukocyte (granulocyte) elastase via hydrolysis of Boc-AAPAN. It counts as biochemical.
Settings: not given
The protocol:
Enzyme assay for the Inhibition of Human Polymorphonuclear Leukocyte Elastase Via Hydrolysis of N-t-Boc-alanyl-alanyl-prolylalanine-p-nitroanilide
0.05M TES (N-tris[hydroxymethyl]methyl-2-amino-ethanesulfonic acid) buffer, pH 7.5.
0.2 mM N-t-Boc-alanyl-alanyl-prolyl-alanine-p-nitroanilide (Boc-AAPAN).
To prepare substrate, the solid (m.w. 550) was first dissolved in 10.0 ml DMSO. Buffer at pH 7.5 was then added to a final volume of 100 ml.
Crude extract of human polymorphonuclear leukocytes (PMN) containing elastase activity.
Inhibitors (cephalosporin sulfoxide esters) to be tested dissolved in DMSO just before use.
To 1.0 ml of 0.2 mM Boc-AAPAN in a cuvette, 0.01-0.1 ml of DMSO with or without inhibitor was added. After mixing, a measurement was taken at 410 mμ to detect any spontaneous hydrolysis due to of test compound. 0.05 Milliliters of PMN extract was then added and the αOD/minute at 410 mμ was measured and recorded. Beckman model 35 spectrophotometer was used.
The elastase activity in the crude PMN extract may vary from one preparation to another. A control of each new batch is run, and the volume added in the assay procedure is adjusted according to activity.
The IC50 is the concentration needed to halve the response being measured. Regarding `CC(=O)O[C@H]1C(=O)N2[C@@H](C(=O)OCc3ccccc3)C(C)(C)S(=O)(=O)[C@H]12` [CH3 COO / 2 / OBZ, Benzyl 6α-acetoxypenicillanate-1,1-dioxide], the IC50 was 0.524 µM. On the same count and under the same terms, the value for `CC(OC(=O)NCc1ccccc1)[C@H]1C(=O)N2[C@@H](C(=O)OCc3ccccc3)C(C)(C)S(=O)(=O)[C@H]12` (stereo partly shown) [drawing 28 / 2 / OBZ] was 1.2 µM. The same measure, in the same setting: the value for `Cc1ccc(S(=O)(=O)OC2C(=O)N3[C@@H](C(=O)OCc4ccccc4)C(C)(C)S(=O)(=O)[C@H]23)cc1` (stereo partly shown) [p-CH3 C6 H4 SO2 O(TsO) / 2 / OBZ] was 0.101 µM.

Staying with this assay, now noted: crude human PMN extract, 0.2 mM Boc-AAPAN, pH 7.5, 410 mμ, 2 minutes after zero time; read-out: IC50 (dosage for 50% inhibition of the enzyme activity) (converted).
Regarding `CC1(C)S[C@@H]2C(OC(=O)COc3ccccc3)C(=O)N2[C@H]1C(=O)OCc1ccccc1` (stereo partly shown) [C6 H5 OCH2 COO / 0 / OBZ], the IC50 was 45.3 µM.

For `CC1(C)[C@H](C(=O)OCc2ccccc2)N2C(=O)C(OC(=O)COc3ccccc3)[C@H]2[S+]1[O-]` (stereo partly shown) [C6 H5 OCH2 COO / 1 / OBZ], the IC50 was 10.9 µM. On the same count and under the same terms, as for `CC(=O)O[C@H]1C(=O)N2[C@@H]1SC(C)(C)[C@@H]2C(=O)OCc1ccccc1` [CH3 COO / 0 / OBZ], the figure is 28.6 µM; as for `CC(=O)O[C@H]1C(=O)N2[C@@H]1[S+]([O-])C(C)(C)[C@@H]2C(=O)OCc1ccccc1` (stereo partly shown) [CH3 COO / 1 / OBZ], 13.7 µM; as for `CC(OC(=O)OCc1ccc([N+](=O)[O-])cc1)[C@H]1C(=O)N2[C@@H](C(=O)OCc3ccccc3)C(C)(C)S(=O)(=O)[C@H]12` (stereo partly shown) [drawing 27 / 2 / OBZ], 0.366 µM. Still for that read-out and setting: as for `C[C@@H](OC(=O)OCc1ccccc1)[C@H]1C(=O)N2[C@@H](C(=O)OCc3ccccc3)C(C)(C)S(=O)(=O)[C@H]12` [drawing 29 / 2 / OBZ], the figure is 0.0997 µM; as for `CC(OC(=O)N(Cc1ccccc1)C(=O)NCc1ccccc1)[C@H]1C(=O)N2[C@@H](C(=O)OCc3ccccc3)C(C)(C)S(=O)(=O)[C@H]12` (stereo partly shown) [drawing 30 / 2 / OBZ], 0.0789 µM.

For the compound `Cc1ccc(S(=O)(=O)OC2C(=O)N3[C@@H]2[S+]([O-])C(C)(C)[C@@H]3C(=O)OCc2ccccc2)cc1` (stereo partly shown) [p-CH3 C6 H4 SO2 O(TsO) / 1 / OBZ], the IC50 is 4.19 µM.

In the case of `CO[C@]1(NC(=O)C(F)(F)F)C(=O)N2[C@@H](C(=O)OCc3ccccc3)C(C)(C)S(=O)(=O)[C@@H]21` [α-CF3 CONH / β-CH3 O / 2 / OBZ], the IC50 is 1.72 µM. On the same count and under the same terms, the value for `CO[C@H]1C(=O)N2[C@@H]1SC(C)(COC(C)=O)[C@@H]2C(=O)OCc1ccccc1` (stereo partly drawn) [α-CH3 O / 0 / OBZ] was 13.2 µM. For `CO[C@H]1C(=O)N2[C@@H]1[S+]([O-])C(C)(COC(C)=O)[C@@H]2C(=O)OCc1ccccc1` (stereo partly drawn) [α-CH3 O / 1 / OBZ], the IC50 is 10.1 µM. Same read-out and setting: the value for `CO[C@H]1C(=O)N2[C@@H](C(=O)OCc3ccccc3)C(C)(COC(C)=O)S(=O)(=O)[C@H]12` (stereo partly drawn) [α-CH3 O / 2 / OBZ] was 9.72 to 14.6 µM; that for `CCC1(N(C)C(=O)C(F)(F)F)C(=O)N2C1[S+]([O-])C(C)(C)C2C(=O)OCc1ccccc1` (stereo not drawn) [β-CF3 CON(CH3) / α-C2 H5 / 1 / OBZ] was 43.4 µM. On the same count and under the same terms, the value for `CC[C@@]1(NC(=O)C(F)(F)F)C(=O)N2[C@@H](C(=O)OCc3ccccc3)C(C)(C)[S+]([O-])[C@@H]21` (stereo partly drawn) [β-CF3 CONH / α-C2 H5 / 1 / OBZ] was 11.2 µM; that for `CC[C@@]1(NC(=O)C(F)(F)F)C(=O)N2[C@@H](C(=O)OCc3ccccc3)C(C)(C)S(=O)(=O)[C@@H]21` [β-CF3 CONH / α-C2 H5 / 2 / OBZ, benzyl 6α-ethyl-6β-trifluoroacetamidopenicillanate-1,1-dioxide] was 6.49 µM; that for `CO[C@@]1(NC(=O)C(F)(F)F)C(=O)N2[C@@H](C(=O)OCc3ccccc3)C(C)(C)S(=O)(=O)[C@@H]21` [β-CF3 CONH / α-CH3 O / 2 / OBZ] was 19.4 µM.
